Reference: US9206396B2, “Methods and devices for quantitative viral assays” (Wisconsin Alumni Research Foundation, priority 2005, dated 2015)
In brackets after ≈: the same amount, converted by molar mass. Entries after “also recorded” stand apart in the source; their conditions may differ. Read-outs that look alike come from different tables or passages of the source.

Experiments:
Assay in all cases: microbe, parasite or virus in culture
Type in all cases: cell-based, recombinant VSV in BHK cells
rVSV-GFP [1] = tested on: rVSV-GFP
rVSV-GFP [2] = tested on: rVSV-GFP; remark: listed apart in the source
rVSV-GFP [3] = tested on: rVSV-GFP; remark: listed apart in the source

**Q.** Which “Detection of comets at 16 μg/ml” value (rVSV-GFP [1]) does the source give for `O=c1[nH]cc(F)c(=O)[nH]1` [5-fluorouracil] here?
**A.** comets could no longer be detected

**Q.** What about the “Inhibition of VSV comet formation” value (rVSV-GFP [1]) of the same compound?
**A.** Dose-dependent inhibition; also recorded: inhibited the formation of comets in a dose-dependent manner

**Q.** And the IC50 (rVSV-GFP [1]; Vesicular stomatitis virus, read-out: 50 percent inhibition concentration (IC50), virus infectivity, comet assay)?
**A.** 1 µg/mL (≈ 7.69 µM)

**Q.** And the “Infection at drug concentration of 16 μg/ml, yield assay” value (rVSV-GFP [2])?
**A.** retained detectable infection

**Q.** What about the IC50 (rVSV-GFP [2]; Vesicular stomatitis virus, read-out: IC50, drug concentration required to reduce the virus yield by 50%) of the same compound?
**A.** 4 µg/mL (≈ 30.8 µM)

**Q.** What about the “Infection at drug concentration of 16 μg/ml, plaque assay” value (rVSV-GFP [3]) of the same compound?
**A.** retained detectable infection

**Q.** What about the IC50 (rVSV-GFP [3]; Vesicular stomatitis virus, read-out: IC50, drug concentration required to reduce the number of plaques by 50%) of the same compound?
**A.** 16 µg/mL (≈ 123 µM)
